The text below walks through data of ChEMBL document CHEMBL1201862, “PubChem BioAssay data set” (2004).

The target of assay [1] is 5-hydroxytryptamine receptor 5A (Homo sapiens, UniProt P47898). Nature of the assay: Counterscreen for agonists of OPRM1-OPRD1 heterodimerization: luminescence-based cell-based high throughput dose response assay to identify agonists of 5-hydroxytryptamine (serotonin) 5A receptor (HTR5A). [Related pubchem assays (depositor defined):AID504326, AID504355, AID504692, AID504904, AID504905]. The assay is classed as functional. A general note: The purpose of a counterscreen is to sort out artefacts and off-target activity.
Chain of 5-hydroxytryptamine receptor 5A (P47898 whole entry): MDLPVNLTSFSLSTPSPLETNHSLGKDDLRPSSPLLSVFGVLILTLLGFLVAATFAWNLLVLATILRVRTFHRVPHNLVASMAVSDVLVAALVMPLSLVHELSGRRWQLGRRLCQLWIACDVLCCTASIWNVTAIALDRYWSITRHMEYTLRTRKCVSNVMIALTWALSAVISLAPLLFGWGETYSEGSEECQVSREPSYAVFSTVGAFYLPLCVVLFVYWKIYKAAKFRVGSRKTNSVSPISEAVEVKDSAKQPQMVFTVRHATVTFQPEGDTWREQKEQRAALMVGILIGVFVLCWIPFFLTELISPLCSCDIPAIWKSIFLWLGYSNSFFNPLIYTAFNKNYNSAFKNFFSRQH

Assay [2] concerns the target Delta-type opioid receptor (Homo sapiens, UniProt P41143). Nature of the assay: Counterscreen for agonists of heterodimerization of the mu 1 (OPRM1) and delta 1 (OPRD1) opioid receptors: Luminescence-based cell-based high throughput dose response assay to identify agonists of OPRD1 homodimerization. [Related pubchem assays (depositor defined):AID504326, AID504355, AID504692, AID504904, AID504905]. The assay is classed as functional.

Assay [3] concerns the target T1, Short transient receptor potential channel 4 (Mus musculus, UniProt Q9QUQ5).
T1 sequence (Q9QUQ5 whole entry): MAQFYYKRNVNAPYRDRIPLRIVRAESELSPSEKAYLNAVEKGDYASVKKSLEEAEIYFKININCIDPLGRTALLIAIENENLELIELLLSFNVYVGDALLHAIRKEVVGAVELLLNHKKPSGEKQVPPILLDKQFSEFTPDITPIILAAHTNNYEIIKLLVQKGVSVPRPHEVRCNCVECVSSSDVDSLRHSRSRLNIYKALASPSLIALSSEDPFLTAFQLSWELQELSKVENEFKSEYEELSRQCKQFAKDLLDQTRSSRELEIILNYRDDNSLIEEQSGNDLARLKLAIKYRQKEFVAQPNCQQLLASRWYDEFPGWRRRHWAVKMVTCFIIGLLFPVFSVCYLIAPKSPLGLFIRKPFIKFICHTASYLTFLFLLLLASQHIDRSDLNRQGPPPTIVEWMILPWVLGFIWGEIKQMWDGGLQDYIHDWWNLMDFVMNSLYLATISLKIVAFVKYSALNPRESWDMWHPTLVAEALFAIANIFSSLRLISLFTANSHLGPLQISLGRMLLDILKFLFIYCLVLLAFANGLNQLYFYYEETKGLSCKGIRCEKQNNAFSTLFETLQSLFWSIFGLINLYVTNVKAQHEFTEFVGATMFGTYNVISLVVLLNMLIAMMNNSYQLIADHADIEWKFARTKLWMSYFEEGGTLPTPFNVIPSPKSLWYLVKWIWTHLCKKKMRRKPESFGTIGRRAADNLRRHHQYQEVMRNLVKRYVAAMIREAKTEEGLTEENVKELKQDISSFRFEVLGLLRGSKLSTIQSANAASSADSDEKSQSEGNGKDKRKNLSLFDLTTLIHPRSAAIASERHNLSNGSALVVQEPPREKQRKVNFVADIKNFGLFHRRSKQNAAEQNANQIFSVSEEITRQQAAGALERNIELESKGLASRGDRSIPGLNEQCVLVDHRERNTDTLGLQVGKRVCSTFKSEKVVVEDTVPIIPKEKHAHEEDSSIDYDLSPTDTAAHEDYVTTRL
As to the kind of experiment: mouse TRPC4 channel activators, dose response, cell-based, HEK293 TRPC4/mu-opioid, Fluo-4 calcium (AID 434937). It is filed as functional.

The target of the next assay is Mu-type opioid receptor (Homo sapiens, UniProt P35372). As to the kind of experiment: Counterscreen for agonists of heterodimerization of the mu 1 (OPRM1) and delta 1 (OPRD1) opioid receptors: Luminescence-based cell-based high throughput dose response assay to identify agonists of OPRM1 homodimerization. It is filed as functional.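 Further: U2OS cells expressing OPRM1 and beta-arrestin as split beta-galactosidase partners.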
Chain of Mu-type opioid receptor (P35372 whole entry): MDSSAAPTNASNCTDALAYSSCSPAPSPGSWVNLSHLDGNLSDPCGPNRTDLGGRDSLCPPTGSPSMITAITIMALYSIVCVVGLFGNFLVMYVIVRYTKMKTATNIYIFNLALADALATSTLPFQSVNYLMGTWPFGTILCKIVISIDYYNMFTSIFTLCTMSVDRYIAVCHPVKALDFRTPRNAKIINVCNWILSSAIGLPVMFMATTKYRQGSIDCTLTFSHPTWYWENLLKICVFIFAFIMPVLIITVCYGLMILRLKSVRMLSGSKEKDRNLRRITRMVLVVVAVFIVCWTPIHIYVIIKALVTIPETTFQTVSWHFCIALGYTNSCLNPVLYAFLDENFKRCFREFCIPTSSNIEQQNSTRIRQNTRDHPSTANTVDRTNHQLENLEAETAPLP
The target in assay [4] is T2, DNA repair protein RAD52 homolog (Homo sapiens, UniProt P43351).
T2 sequence (P43351 whole entry): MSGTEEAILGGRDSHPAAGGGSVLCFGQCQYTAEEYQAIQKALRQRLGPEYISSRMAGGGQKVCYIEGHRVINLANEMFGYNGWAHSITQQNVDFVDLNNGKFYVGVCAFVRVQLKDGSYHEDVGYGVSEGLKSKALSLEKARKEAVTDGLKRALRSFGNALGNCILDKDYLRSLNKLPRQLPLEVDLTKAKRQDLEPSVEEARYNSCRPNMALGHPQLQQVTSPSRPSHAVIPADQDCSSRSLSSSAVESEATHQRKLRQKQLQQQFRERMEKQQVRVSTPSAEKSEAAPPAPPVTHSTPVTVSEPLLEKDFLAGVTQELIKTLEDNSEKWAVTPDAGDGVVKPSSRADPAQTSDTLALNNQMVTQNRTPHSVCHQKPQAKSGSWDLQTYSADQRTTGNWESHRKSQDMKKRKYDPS
The assay is classed as functional, biochemical.

In assay [5] the target is DNA repair and recombination protein RAD54-like (Homo sapiens, UniProt Q92698). Nature of the assay: inhibitors of human RAD54 branch migration, confirmation, biochemical, fluorescence, cherry-picked samples, dose series (AID 651657). It is filed as functional.
Chain of DNA repair and recombination protein RAD54-like (Q92698 whole entry): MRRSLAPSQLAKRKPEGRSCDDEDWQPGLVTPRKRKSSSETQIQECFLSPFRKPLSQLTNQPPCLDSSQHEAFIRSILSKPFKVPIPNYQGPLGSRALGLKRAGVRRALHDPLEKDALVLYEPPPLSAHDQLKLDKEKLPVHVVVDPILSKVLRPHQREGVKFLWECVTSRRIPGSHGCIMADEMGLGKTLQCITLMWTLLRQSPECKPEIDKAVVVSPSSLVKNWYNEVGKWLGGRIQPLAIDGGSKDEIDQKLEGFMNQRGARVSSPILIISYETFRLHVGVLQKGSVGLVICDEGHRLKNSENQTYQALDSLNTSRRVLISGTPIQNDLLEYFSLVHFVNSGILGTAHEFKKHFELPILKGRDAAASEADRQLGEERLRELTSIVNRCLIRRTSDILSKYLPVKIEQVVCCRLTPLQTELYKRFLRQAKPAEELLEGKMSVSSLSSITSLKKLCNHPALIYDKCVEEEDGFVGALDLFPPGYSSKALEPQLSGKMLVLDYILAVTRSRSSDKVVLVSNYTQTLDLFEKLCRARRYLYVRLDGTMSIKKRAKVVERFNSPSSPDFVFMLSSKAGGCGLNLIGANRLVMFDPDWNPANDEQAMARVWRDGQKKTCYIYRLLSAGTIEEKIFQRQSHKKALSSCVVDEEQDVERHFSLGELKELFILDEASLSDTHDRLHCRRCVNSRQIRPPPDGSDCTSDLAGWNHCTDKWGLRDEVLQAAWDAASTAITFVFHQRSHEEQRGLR
Assay [6] deals with 72 kDa type IV collagenase (Homo sapiens, UniProt P08253). Nature of the assay: Dose Response validation of uHTS RPN11 inhibitor hits using a MMP-2 Fluorescence assay. The assay is classed as functional.
Chain of 72 kDa type IV collagenase (P08253 whole entry): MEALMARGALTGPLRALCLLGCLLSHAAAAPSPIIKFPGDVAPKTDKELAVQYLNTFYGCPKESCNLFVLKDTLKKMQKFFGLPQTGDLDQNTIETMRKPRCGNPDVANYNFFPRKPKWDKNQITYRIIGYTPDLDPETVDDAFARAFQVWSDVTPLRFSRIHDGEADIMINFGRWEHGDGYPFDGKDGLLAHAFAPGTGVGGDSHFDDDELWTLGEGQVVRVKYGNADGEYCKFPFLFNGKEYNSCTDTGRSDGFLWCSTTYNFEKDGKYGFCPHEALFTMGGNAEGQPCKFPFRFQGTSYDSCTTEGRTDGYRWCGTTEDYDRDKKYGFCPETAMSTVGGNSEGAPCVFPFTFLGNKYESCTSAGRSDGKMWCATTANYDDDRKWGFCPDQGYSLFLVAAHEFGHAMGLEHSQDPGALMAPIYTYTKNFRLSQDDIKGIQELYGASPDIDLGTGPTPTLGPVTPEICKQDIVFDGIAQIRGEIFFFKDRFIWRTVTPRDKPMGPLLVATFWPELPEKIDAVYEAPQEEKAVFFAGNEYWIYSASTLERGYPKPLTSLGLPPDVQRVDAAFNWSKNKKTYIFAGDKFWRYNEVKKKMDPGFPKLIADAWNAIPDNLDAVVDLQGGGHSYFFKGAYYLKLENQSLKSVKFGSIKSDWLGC
The target of another assay is Prothrombin (Bos taurus, UniProt P00735). As to the kind of experiment: thrombin inhibition, dose response, biochemical, fluorescence polarization, uHTS hits (AID 602369). The assay is classed as functional. In general terms: Fluorescence polarisation rises when a labelled molecule tumbles more slowly, as on binding a larger partner.
Assay [7] deals with 26S proteasome non-ATPase regulatory subunit 14 (Homo sapiens, UniProt O00487). As to the kind of experiment: inhibition of proteasome subunit RPN11 – biochemical, fluorescence polarization, uHTS hits, confirmation (AID 602368). It is filed as functional.
Chain of 26S proteasome non-ATPase regulatory subunit 14 (O00487 whole entry): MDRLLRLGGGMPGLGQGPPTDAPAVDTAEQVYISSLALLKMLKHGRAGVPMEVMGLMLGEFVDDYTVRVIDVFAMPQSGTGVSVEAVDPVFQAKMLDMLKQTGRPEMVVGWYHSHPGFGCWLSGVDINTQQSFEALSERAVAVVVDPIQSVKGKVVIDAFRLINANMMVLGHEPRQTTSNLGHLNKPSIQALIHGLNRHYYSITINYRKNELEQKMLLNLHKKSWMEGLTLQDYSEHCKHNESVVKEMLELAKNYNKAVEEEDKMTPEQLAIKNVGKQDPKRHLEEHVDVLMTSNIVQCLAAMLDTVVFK
In assay [8] the target is Tyrosine-protein phosphatase non-receptor type 22 (Homo sapiens, UniProt Q9Y2R2). Nature of the assay: PTPN22 phosphatase inhibition, dose response, selectivity assay for STEP inhibitor project, biochemical (AID 624241). The assay is classed as functional.
Chain of Tyrosine-protein phosphatase non-receptor type 22 (Q9Y2R2 whole entry): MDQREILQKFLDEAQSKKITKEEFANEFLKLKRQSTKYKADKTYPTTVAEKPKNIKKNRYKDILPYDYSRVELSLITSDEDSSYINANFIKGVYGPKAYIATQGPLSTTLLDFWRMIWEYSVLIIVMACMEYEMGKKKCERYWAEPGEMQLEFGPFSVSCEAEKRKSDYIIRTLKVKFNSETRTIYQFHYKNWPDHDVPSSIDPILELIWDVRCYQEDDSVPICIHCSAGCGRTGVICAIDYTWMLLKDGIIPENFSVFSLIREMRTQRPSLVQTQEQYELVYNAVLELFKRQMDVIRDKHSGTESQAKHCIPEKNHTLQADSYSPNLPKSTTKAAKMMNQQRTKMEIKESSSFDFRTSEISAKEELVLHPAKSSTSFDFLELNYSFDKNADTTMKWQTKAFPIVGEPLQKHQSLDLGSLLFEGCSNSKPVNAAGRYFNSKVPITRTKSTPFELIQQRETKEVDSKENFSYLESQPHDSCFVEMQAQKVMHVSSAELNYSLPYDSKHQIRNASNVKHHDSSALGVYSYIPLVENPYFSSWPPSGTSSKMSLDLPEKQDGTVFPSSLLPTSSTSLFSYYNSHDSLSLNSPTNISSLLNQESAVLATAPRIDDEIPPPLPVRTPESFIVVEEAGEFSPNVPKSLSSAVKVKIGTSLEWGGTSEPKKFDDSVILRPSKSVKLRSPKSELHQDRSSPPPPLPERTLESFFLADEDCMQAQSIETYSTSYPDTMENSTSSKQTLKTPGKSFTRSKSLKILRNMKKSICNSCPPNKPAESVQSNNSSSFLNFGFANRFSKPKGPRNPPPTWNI
Assay [9] addresses Dual specificity protein phosphatase 3 (Homo sapiens, UniProt P51452). Nature of the assay: VHR phosphatase inhibition, dose response, selectivity assay for STEP inhibitor project, biochemical (AID 602374). The note with it: read-out: IC50_Mean. It is filed as functional.
The target of assay [10] is T3, Tyrosine-protein phosphatase non-receptor type 5 (Homo sapiens, UniProt P54829).
T3 sequence (P54829 whole entry): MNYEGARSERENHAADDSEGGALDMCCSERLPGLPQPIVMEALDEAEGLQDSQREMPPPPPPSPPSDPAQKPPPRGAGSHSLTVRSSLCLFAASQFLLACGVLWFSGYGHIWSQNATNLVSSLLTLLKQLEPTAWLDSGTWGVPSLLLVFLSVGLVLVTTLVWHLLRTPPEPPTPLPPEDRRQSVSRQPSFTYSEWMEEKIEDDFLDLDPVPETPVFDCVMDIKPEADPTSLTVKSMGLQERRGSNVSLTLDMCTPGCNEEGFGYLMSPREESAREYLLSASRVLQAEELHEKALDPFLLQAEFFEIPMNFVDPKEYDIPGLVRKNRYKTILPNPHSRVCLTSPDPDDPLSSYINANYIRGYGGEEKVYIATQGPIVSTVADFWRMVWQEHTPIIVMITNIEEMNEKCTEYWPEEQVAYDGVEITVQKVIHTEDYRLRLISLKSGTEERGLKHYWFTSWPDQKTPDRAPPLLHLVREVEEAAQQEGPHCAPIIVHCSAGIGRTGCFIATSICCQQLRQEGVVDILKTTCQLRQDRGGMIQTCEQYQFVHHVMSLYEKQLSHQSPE
As to the kind of experiment: STEP phosphatase inhibitors, confirmation, biochemical, fluorescence intensity, uHTS hits (AID 602372). The assay is classed as functional. The following applies: read-out: IC50_Mean.

Assay [11] has as its target T4, Tyrosine-protein phosphatase non-receptor type 11 (Homo sapiens, UniProt Q06124).
T4 sequence (Q06124 whole entry): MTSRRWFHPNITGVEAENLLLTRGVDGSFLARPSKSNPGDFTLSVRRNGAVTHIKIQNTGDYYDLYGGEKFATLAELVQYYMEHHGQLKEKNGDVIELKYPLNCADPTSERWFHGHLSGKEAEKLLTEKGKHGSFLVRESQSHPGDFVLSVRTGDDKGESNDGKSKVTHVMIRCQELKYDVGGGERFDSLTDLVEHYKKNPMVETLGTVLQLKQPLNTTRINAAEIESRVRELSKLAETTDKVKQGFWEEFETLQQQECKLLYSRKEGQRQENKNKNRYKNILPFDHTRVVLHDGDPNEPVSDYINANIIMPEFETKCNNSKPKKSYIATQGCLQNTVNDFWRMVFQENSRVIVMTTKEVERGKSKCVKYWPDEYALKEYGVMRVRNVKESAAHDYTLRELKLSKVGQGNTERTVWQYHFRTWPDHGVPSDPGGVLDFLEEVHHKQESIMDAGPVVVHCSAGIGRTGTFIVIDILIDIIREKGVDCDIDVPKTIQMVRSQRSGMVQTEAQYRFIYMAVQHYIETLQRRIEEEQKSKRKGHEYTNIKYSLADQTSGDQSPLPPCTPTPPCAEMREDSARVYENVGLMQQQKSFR
As to the kind of experiment: SHP2 phosphatase inhibition, dose response, selectivity assay for STEP inhibitor project, biochemical (AID 602367). It is filed as functional. The following applies: read-out: IC50_Mean.

Assay [12] has as its target T5, Corticotropin-releasing factor receptor 2/Corticotropin-releasing factor-binding protein (Homo sapiens, UniProt P24387+Q13324).
T5 sequence (Q13324 whole entry): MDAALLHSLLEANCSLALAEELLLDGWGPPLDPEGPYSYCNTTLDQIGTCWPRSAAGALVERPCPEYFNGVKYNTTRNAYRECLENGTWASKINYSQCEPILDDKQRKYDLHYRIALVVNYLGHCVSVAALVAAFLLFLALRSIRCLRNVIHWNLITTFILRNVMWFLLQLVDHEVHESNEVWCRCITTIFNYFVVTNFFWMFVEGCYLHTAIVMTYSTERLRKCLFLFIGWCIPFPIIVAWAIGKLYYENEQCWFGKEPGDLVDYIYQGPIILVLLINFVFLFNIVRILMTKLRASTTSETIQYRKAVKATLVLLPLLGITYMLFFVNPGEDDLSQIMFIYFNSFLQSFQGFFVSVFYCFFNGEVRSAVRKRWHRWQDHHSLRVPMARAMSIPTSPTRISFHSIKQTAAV
T5 sequence (P24387 whole entry): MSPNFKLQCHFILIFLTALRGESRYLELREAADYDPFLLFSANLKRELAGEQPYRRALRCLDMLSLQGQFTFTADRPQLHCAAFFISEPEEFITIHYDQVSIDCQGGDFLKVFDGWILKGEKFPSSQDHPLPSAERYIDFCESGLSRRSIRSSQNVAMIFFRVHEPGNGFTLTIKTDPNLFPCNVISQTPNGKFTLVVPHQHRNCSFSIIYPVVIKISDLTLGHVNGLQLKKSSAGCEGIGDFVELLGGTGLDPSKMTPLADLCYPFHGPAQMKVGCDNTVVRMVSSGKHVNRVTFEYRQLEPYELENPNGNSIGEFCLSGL
As to the kind of experiment: activators of CRF receptor 2 with binding protein – uHTS hits, confirmation (AID 602473). The note with it: read-out: EC50_Mean. The assay is classed as functional.

For a further assay, the system named is Vero. As to the kind of experiment: cells. It is filed as functional. The following applies: Chlorocebus sabaeus.
Assay [13] has as its target T6, Sentrin-specific protease 8 (Homo sapiens, UniProt Q96LD8).
T6 sequence (Q96LD8 whole entry): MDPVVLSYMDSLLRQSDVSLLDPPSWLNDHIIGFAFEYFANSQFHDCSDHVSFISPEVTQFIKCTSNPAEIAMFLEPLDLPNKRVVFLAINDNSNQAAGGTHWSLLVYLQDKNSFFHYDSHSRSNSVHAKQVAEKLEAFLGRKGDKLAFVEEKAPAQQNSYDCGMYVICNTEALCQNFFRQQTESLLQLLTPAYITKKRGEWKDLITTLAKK
The assay is classed as functional.

In another assay the target is T7, Caspase-3 (Homo sapiens, UniProt P42574).
T7 sequence (P42574 whole entry): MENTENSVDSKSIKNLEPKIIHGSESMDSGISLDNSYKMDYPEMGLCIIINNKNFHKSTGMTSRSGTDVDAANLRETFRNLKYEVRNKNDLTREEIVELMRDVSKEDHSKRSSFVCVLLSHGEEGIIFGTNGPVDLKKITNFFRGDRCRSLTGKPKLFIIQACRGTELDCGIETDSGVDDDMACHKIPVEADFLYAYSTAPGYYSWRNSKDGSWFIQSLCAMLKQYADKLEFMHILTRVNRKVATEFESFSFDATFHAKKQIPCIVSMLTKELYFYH
Nature of the assay: Dose-response confirmation of uHTS inhibitor hits of Sentrin-Specific Protease 8 in a Caspase-3 Fluorescence assay. The assay is classed as functional.

The target in assay [14] is T6, Sentrin-specific protease 8. It is filed as functional. This is another data set of the same source.

Structures are written as SMILES. Activity calls are given as the source filed them. A value given as a limit tells only on which side of the number the result lay.

Chain of Dual specificity protein phosphatase 3 (P51452 whole entry): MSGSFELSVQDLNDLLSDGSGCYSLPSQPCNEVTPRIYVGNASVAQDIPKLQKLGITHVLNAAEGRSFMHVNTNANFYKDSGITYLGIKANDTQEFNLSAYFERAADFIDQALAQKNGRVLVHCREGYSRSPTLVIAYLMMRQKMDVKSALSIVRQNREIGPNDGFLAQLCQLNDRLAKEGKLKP
Chain of Delta-type opioid receptor (P41143 whole entry): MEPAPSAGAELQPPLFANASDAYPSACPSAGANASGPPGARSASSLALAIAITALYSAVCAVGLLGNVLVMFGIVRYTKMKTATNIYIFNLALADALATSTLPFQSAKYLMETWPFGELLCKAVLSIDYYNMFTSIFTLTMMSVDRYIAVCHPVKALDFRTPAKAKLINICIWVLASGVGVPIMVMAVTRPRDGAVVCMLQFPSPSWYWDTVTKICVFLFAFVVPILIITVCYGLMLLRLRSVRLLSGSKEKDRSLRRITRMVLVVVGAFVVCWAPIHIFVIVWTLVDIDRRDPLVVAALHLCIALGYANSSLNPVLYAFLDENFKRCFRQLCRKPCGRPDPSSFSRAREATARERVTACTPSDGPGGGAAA

For `Cc1ccc(C)c(-n2cc(CNCCc3cnccn3)c(-c3ccccc3)n2)c1`, the EC50 is > 92.5 µM (inactive) in [1], > 92.5 µM (inactive) in [2], 0.267 µM (active) in assay [3] and > 92.5 µM (inactive) at Mu-type opioid receptor.
Consider `N=c1n(CCN2CCCCC2)c2ccccc2n1CC(=O)c1cccc([N+](=O)[O-])c1`, for which the AC50 was 9.9 µM (active) in assay [4] and 23.7 µM (active) in assay [5].
For the compound `CCn1c(SCC(=O)c2c[nH]c3ccccc23)nnc1-c1cccs1`, the IC50 in assay [6] was > 100 µM (inactive); on Prothrombin it was 60.5 µM (active); in [7] it was 24.3 µM (active).
For `Cc1ccc(N2C(=O)/C(=C\NN3CCCCC3c3cccnc3)C(=O)NC2=S)cc1` (configuration not stated), in that order: > 100 µM (inactive), 71.3 µM (active) and 31.7 µM (active).
Consider `COc1ccccc1NS(=O)(=O)c1cc(NC(=O)c2sccc2C)ccc1N1CCCC1`, for which the IC50 in [8] is 25.9 µM (inactive); in assay [9] it was 0.163 µM (active); in assay [10], 2.73 µM (active); in [11], 0.665 µM (active).
As for `O=c1c2ccccc2sc2ccc(NCCCN3CCOCC3)cc12`, the EC50 in assay [12] was 7.98 µM (active). In the assay on Vero, the CC50 was > 25 µM (active). Besides, in assay [5], the AC50 is 31.2 µM (active).
For the compound `O=C(CCC(=O)N1CCc2ccccc2C1)N1CCN(S(=O)(=O)c2ccccc2)CC1`, the IC50 in assay [13] is 22.2 µM (active); on Caspase-3, 50 µM (active); in assay [14], 12.9 µM (active).

For orientation: AC50 means the concentration at which the activity in the assay is half-maximal. In general, CC50 refers to the concentration that lowers cell viability or growth by half.
